According to paper PMC11233931, “Remodeling tumor‐associated macrophage for anti‐cancer effects by rational design of irreversible inhibition of mitogen‐activated protein kinase‐activated protein kinase 2” (MedComm, 2024):
Where two headings read alike, the source gives them in different places.

What was measured:
MC38 tumor = test: In vivo antitumor evaluation in MC38 tumor model; parameters: species or system C57BL/6 mice
Protocol: C57BL/6 mice, aged 6 weeks, were house and cared for in a controlled, specific pathogen‐free environment. MC38 tumor cells (3.5 × 10[5] in 100 µL) were administered to the mice via subcutaneous injection into the right flanks. Upon reaching a tumor volume between 50 and 100 mm^3, mice were randomized and assigned to either the vehicle control group or the specified treatment group (n = 7/group). The details regarding the administration of inhibitors and the measurement of tumors are delineated in the Supporting Information Methods.
The mice then received intraperitoneal injections of either the vehicle control or compound 11 (at dosages of 25 or 50 mg/kg) twice daily for 10 days. Tumor size was gauged every three days with a microcaliper, and the tumor volume (TV) was estimated using the formula: TV = (length × width^2)/2. Additionally, the individual Tumor Growth Inhibition value (TGI) was assessed on the last day of the experiment for mice treated with the drug in comparison to those treated with the vehicle. The formula used was 100 × {1 - [(VTreated Final day -VTreated Day 0)/(VControl Final day -VControl Day 0)].

p38 [1] = biological target: T1, p38 (Homo sapiens, UniProt O15264); test: Eurofins kinase selectivity profile, p38; format: biochemical; conditions: p38-delta/SAPK4(h), read-out: Inhibition rate (%)
T1 construct: purchased Eurofins (Celle Lévescault)
T1 sequence (O15264 1-365): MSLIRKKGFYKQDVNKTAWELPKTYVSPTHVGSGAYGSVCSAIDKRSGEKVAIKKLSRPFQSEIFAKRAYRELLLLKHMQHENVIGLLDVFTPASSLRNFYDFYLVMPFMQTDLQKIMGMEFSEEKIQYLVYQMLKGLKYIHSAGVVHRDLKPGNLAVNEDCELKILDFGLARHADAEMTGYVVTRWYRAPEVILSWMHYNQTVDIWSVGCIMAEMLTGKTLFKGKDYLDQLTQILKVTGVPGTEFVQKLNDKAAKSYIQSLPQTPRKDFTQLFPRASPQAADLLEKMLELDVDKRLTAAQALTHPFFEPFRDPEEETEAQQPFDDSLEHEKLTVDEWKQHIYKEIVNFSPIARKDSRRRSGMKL
Protocol: (§1) Subsequently, to ascertain whether the high potency of compound 11 was specific for MK2, an additional 380 human recombinant protein kinases were screened.
(§2) To assess the impact of various compounds on MK2 kinase activity, we utilized the ADP‐Glo Assay Kit (Promega) following the manufacturer's instructions. Luminescence measurements were taken using a SpectraMax Paradigm reader. The inhibition percentage was calculated using the following formula: ((specific signalDMSO control − specific signal inhibitor)/(specific signalDMSO control)) × 100%. The IC50 values were determined employing dose–response curve fitting via Prism (Graph Pad). Additionally, Eurofins company (Celle Lévescault) conducted the analysis on compound 11’s inhibitory activity against 380 other human recombinant kinases at various concentrations.

p38 [2] = test: Eurofins kinase selectivity profile, p38; format: biochemical, human
Protocol: as §1, §2

p38 [3] = biological target: T2, p38 (Homo sapiens, UniProt Q15759); test: Eurofins kinase selectivity profile, p38; format: biochemical; conditions: p38-beta/SAPK2b(h), read-out: Inhibition rate (%)
T2 construct: purchased Eurofins (Celle Lévescault)
Protocol: as §1, §2

p38 [4] = biological target: T3, p38 (Homo sapiens, UniProt P53778); test: Eurofins kinase selectivity profile, p38; format: biochemical; conditions: p38-gamma/SAPK3(h), read-out: Inhibition rate (%)
T3 construct: purchased Eurofins (Celle Lévescault)
T3 sequence (P53778 1-367): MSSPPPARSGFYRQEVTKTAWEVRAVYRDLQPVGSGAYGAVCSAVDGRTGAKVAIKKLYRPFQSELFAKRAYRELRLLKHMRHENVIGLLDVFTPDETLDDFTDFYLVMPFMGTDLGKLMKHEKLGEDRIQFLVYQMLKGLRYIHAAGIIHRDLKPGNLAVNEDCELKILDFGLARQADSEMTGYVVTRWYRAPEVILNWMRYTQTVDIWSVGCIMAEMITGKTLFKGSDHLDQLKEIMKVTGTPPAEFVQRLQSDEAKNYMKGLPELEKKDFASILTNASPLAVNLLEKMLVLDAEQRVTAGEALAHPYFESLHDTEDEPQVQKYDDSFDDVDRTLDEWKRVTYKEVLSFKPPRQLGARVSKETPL
Protocol: as §1, §2

p38 [5] = biological target: T4, p38 (Homo sapiens, UniProt Q16539); test: Eurofins kinase selectivity profile, p38; format: biochemical
T4 construct: purchased Eurofins (Celle Lévescault)
Protocol: as §1, §2

FGFR4 = biological target: T5, FGFR4 (Homo sapiens, UniProt P22455); test: Eurofins kinase selectivity profile, FGFR4; format: biochemical
T5 construct: purchased Eurofins (Celle Lévescault)
Protocol: as §1, §2

T4 sequence (Q16539 2-360): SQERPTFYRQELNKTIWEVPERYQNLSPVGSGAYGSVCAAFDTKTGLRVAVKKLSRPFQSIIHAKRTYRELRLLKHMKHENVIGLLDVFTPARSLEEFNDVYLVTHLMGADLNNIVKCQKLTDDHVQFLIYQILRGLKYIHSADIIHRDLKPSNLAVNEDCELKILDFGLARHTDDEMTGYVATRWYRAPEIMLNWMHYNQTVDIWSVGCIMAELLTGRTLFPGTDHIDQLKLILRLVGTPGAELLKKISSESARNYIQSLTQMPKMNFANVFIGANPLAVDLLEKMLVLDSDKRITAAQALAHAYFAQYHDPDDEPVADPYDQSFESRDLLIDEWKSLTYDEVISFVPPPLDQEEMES
T2 sequence (Q15759 whole entry): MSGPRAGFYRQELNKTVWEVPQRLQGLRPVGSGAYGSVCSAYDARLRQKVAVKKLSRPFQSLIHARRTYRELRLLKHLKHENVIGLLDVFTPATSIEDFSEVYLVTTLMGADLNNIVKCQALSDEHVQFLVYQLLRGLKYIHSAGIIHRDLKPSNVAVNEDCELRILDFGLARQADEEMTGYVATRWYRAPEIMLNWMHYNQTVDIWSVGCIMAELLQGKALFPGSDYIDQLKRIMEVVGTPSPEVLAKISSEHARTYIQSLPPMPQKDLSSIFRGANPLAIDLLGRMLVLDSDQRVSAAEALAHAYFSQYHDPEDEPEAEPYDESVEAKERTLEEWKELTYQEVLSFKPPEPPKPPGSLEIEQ
T5 sequence (P22455 22-802): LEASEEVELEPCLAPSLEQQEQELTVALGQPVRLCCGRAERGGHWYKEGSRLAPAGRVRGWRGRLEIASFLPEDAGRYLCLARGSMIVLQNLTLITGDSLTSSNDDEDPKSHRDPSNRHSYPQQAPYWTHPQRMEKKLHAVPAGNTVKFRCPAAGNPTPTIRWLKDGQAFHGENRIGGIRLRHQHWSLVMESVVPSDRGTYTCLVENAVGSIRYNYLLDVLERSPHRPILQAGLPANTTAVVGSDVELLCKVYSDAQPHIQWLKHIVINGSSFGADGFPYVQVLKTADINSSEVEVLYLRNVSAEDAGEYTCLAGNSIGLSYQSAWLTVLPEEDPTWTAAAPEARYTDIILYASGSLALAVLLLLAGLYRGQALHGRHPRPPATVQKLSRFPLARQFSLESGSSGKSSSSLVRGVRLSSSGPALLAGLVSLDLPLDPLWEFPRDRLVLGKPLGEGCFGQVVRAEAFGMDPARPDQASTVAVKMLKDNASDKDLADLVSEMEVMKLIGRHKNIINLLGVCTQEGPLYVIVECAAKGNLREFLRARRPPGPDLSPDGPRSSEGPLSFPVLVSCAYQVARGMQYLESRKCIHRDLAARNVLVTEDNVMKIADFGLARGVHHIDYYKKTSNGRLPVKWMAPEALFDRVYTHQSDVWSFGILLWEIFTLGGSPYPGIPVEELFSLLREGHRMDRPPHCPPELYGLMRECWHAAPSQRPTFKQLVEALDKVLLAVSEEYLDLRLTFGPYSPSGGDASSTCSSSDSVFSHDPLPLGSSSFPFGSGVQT

In the case of C=CC(=O)Nc1cc(-c2cc(-c3cc4c([nH]3)CCNC4=O)ccn2)ccc1OC(F)(F)F [compound 11], the “tumor growth inhibition rate (TGI)” value (MC38 tumor; 25 mg/kg bid x10, ip) is reported as 47.5%, the “tumor growth inhibition rate (TGI)” value (MC38 tumor; 50 mg/kg bid x10, ip) is reported as 64.0% and the inhibition at 0.01 µM (p38 [1]; 10 nM) is reported as -3%. The inhibition at 0.1 µM (p38 [1]; 100 nM) was -6%, the inhibition at 1 µM (p38 [1]; 1000 nM) was 8% and the “selectivity for MK2 over p38” value (p38 [2]) was “over 434 fold”. The inhibition at 0.01 µM (p38 [3]; 10 nM) was -7%, the inhibition at 0.1 µM (p38 [3]; 100 nM) was -11% and the inhibition at 1 µM (p38 [3]; 1000 nM) was -4%. It also gave an inhibition at 0.01 µM (p38 [4]; 10 nM) of 5%, an inhibition at 0.1 µM (p38 [4]; 100 nM) of 2% and an inhibition at 1 µM (p38 [4]; 1000 nM) of 20%. It also gave an IC50 (p38 [5]) of over 1000 nM, an inhibition at 1 µM (p38 [5]; 1 µM, read-out: inhibition rate on p38 kinase) of under 10% and an inhibition at 0.01 µM (p38 [5]; p38-alpha/SAPK2a(h), 10 nM, read-out: Inhibition rate) of 0%. The inhibition at 0.1 µM (p38 [5]; p38-alpha/SAPK2a(h), 100 nM, read-out: Inhibition rate) was -3%, the inhibition at 1 µM (p38 [5]; p38-alpha/SAPK2a(h), 1000 nM, read-out: Inhibition rate) was -5% and the IC50 (FGFR4) was over 1000 nM. It also gave an inhibition at 0.01 µM (FGFR4; FGFR4(h), 10 nM, read-out: Inhibition rate) of 0%, an inhibition at 0.1 µM (FGFR4; FGFR4(h), 100 nM, read-out: Inhibition rate) of -5% and an inhibition at 1 µM (FGFR4; FGFR4(h), 1000 nM, read-out: Inhibition rate) of -1%.
